Assay results as given in PubChem BioAssay AID330 (DTP/NCI, 2004).
Several values for one entry are separate records, joined by “and”; a condition that tells them apart may be missing. Equal entries are not always repeated. Toxic doses and inconclusive results are not listed. How the source made its calls: active means survival T/C of 150% or more; inactive means T/C below 125% in these data.

Tested on: P388 leukemia ip, CD2F1 mice, survival T/C
Experiment: NCI In Vivo Anticancer Drug Screen. Data for tumor model P388 Leukemia (intraperitoneal) in CD2F1 (CDF1) mice
Conditions: endpoint: median survival time, higher = longer survival
Method in brief: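 Mice carrying the transplanted tumor received test compound or vehicle. Survival was recorded in each group, and the value is the treated-group measurement divided by that of the vehicle-treated control group.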

[1] = dose: 50.0 mg/kg/injection, schedule: Q01DX005 (ip), vehicle: saline with Tween-80
[2] = dose: 100.0 mg/kg/injection, schedule: Q01DX005 (ip), vehicle: saline with Tween-80
[3] = dose: 60.0 mg/kg/injection, schedule: Q01DX005 (ip), vehicle: saline with Tween-80
[4] = dose: 120.0 mg/kg/injection, schedule: Q01DX005 (ip), vehicle: saline with Tween-80
[5] = dose: 240.0 mg/kg/injection, schedule: Q01DX005 (ip), vehicle: saline with Tween-80
[6] = dose: 15.0 mg/kg/injection, schedule: Q01DX005 (ip), vehicle: saline
[7] = dose: 30.0 mg/kg/injection, schedule: Q01DX005 (ip), vehicle: saline
[8] = dose: 50.0 mg/kg/injection, schedule: Q01DX009 (ip), vehicle: saline with Tween-80
[9] = dose: 100.0 mg/kg/injection, schedule: Q01DX009 (ip), vehicle: saline with Tween-80
[10] = dose: 50.0 mg/kg/injection, schedule: Q01DX005 (ip), vehicle: Klucel (hydroxypropylcellulose) (HPC)
[11] = dose: 100.0 mg/kg/injection, schedule: Q01DX005 (ip), vehicle: Klucel (hydroxypropylcellulose) (HPC)
[12] = dose: 200.0 mg/kg/injection, schedule: Q01DX005 (ip), vehicle: Klucel (hydroxypropylcellulose) (HPC)
[13] = dose: 100.0 mg/kg/injection, schedule: Q04DX002 (ip), vehicle: saline
[14] = dose: 200.0 mg/kg/injection, schedule: Q04DX002 (ip), vehicle: saline
[15] = dose: 100.0 mg/kg/injection, schedule: Q01DX001 (ip), vehicle: saline with Tween-80
[16] = dose: 200.0 mg/kg/injection, schedule: Q01DX001 (ip), vehicle: saline with Tween-80

Measured: T/C

CCCOc1cc2c(cc1C(C)(C)c1ccccc1)OCO2
inactive: [1] 95 % of control | [2] 100 % of control

COc1cc(C(c2c(O)c3ccccc3oc2=O)N2CCCC2)cc(OC)c1OC (centres undefined)
inactive: [3] 107 % of control | [4] 101 % of control | [5] 104 % of control

CC(=O)OC(C)/C=C\C#N (centres undefined)
inactive: [6] 98 % of control and 104 % of control and 86 % of control | [7] 98 % of control and 100 % of control and 96 % of control

O=C(O)c1ccc2c(c1Cl)C(=O)c1ccccc1C2=O
inactive: dose: 25.0 mg/kg/injection, schedule: Q04DX003 (ip), vehicle: Klucel (hydroxypropylcellulose) (HPC) 101 % of control | dose: 50.0 mg/kg/injection, schedule: Q04DX003 (ip), vehicle: Klucel (hydroxypropylcellulose) (HPC) 101 % of control | dose: 100.0 mg/kg/injection, schedule: Q04DX003 (ip), vehicle: Klucel (hydroxypropylcellulose) (HPC) 100 % of control

CCCCCCCCC(=O)N(C)OC
inactive: dose: 25.0 mg/kg/injection, schedule: Q01DX009 (ip), vehicle: saline with Tween-80 110 % of control | [8] 110 % of control | [9] 105 % of control

NC(CCl)=NCCOC12CC3CC(CC(C3)C1)C2
inactive: [6] 103 % of control | [7] 103 % of control | dose: 60.0 mg/kg/injection, schedule: Q01DX005 (ip), vehicle: saline 106 % of control and 98 % of control

CC(C)C(C/C(=N\Nc1ccc([N+](=O)[O-])cc1[N+](=O)[O-])C1CC1)C(=O)O (centres undefined)
inactive: dose: 25.0 mg/kg/injection, schedule: Q01DX005 (ip), vehicle: saline with Tween-80 105 % of control | [1] 96 % of control | [2] 89 % of control

NC1(N)ON(c2ccc(C=O)cc2)C(c2ccc([N+](=O)[O-])cc2)S1 (centres undefined)
inactive: [10] 89 % of control | [11] 95 % of control | [12] 89 % of control

O=C(OCCn1ncnn1)c1ccc([N+](=O)[O-])cc1
inactive: [10] 104 % of control | [11] 104 % of control | [12] 95 % of control

CCCCCCCCCCOc1cc2c(=O)c(C(=O)OCC)c[nH]c2cc1OCC
inactive: [10] 102 % of control | [11] 98 % of control | [12] 108 % of control

O=C(O)CC[n+]1cccc2c1C(=O)C(=O)c1ncccc1-2
inactive: [13] 114 % of control | [14] 107 % of control

CCCCCCCCCCCCS(=O)(=O)CC(Br)C(=O)c1ccco1 (centres undefined)
inactive: [13] 100 % of control | [14] 100 % of control | dose: 400.0 mg/kg/injection, schedule: Q04DX002 (ip), vehicle: saline 100 % of control

CN(C)C=O
inactive: dose: 12.5 mg/kg/injection, schedule: Q01DX009 (ip), vehicle: saline 103 % of control and 111 % of control | dose: 25.0 mg/kg/injection, schedule: Q01DX009 (ip), vehicle: saline 103 % of control and 107 % of control | dose: 50.0 mg/kg/injection, schedule: Q01DX009 (ip), vehicle: saline 107 % of control (2×) and 111 % of control | dose: 100.0 mg/kg/injection, schedule: Q01DX009 (ip), vehicle: saline 109 % of control and 115 % of control and 116 % of control | dose: 800.0 mg/kg/injection, schedule: Q01DX009 (ip), vehicle: saline 120 % of control | dose: 1600.0 mg/kg/injection, schedule: Q01DX009 (ip), vehicle: saline 118 % of control | dose: 2.0 % in 0.5 ml injection vol, schedule: Q01DX009 (ip), vehicle: water 107 % of control and 119 % of control | dose: 4.0 % in 0.5 ml injection vol, schedule: Q01DX009 (ip), vehicle: water 116 % of control and 119 % of control | dose: 8.0 % in 0.5 ml injection vol, schedule: Q01DX009 (ip), vehicle: water 119 % of control

O=C(CNC(=O)OCc1ccccc1)NCC(=O)NC(Cc1c[nH]c2ccccc12)C(=O)O (centres undefined)
inactive: dose: 50.0 mg/kg/injection, schedule: Q01DX005 (ip), vehicle: suspension in saline 99 % of control | dose: 100.0 mg/kg/injection, schedule: Q01DX005 (ip), vehicle: suspension in saline 97 % of control | dose: 200.0 mg/kg/injection, schedule: Q01DX005 (ip), vehicle: suspension in saline 105 % of control

c1ccc(-c2ccc(NCCN3CCOCC3)nn2)cc1
inactive: dose: 60.0 mg/kg/injection, schedule: Q01DX005 (ip), vehicle: Klucel (hydroxypropylcellulose) (HPC) 100 % of control | dose: 120.0 mg/kg/injection, schedule: Q01DX005 (ip), vehicle: Klucel (hydroxypropylcellulose) (HPC) 105 % of control

CCOC(=O)C(C(C)O)C1CC=CC1 (centres undefined)
inactive: [1] 108 % of control | [2] 100 % of control | dose: 200.0 mg/kg/injection, schedule: Q01DX005 (ip), vehicle: saline with Tween-80 104 % of control

CN1CC2c3cc4c(cc3CC1c1cc3c(cc12)OCO3)OCO4 (centres undefined)
inactive: [15] 108 % of control | [16] 108 % of control

Cc1[nH]n(-c2cc(S(=O)(=O)O)ccc2Cl)c(=O)c1N=Nc1c(NC(=O)c2ccc(N)cc2)ccc2cc(S(=O)(=O)O)ccc12
inactive: [10] 96 % of control | [11] 105 % of control | [12] 115 % of control

O=N[O-].O=[N+]([O-])O.[Co+3].[NH2-].[NH2-].[NH2-].[NH2-].[NH2-]
inactive: dose: 12.5 mg/kg/injection, schedule: Q01DX001 (ip), vehicle: saline 97 % of control | dose: 25.0 mg/kg/injection, schedule: Q01DX001 (ip), vehicle: saline 110 % of control

CC[As](CC)SC1CC2C3CCC4=CC(=O)C=CC4(C)C3C(=O)CC2(C)C1C(=O)CC(C)=O (centres undefined)
inactive: [10] 101 % of control | [11] 103 % of control | [12] 94 % of control

O=C(Nc1ccc(Cl)cc1)Nc1nnc2nc(CC(=O)c3cccc([N+](=O)[O-])c3Cl)c(=O)[nH]n12
inactive: [3] 99 % of control | [4] 101 % of control | [5] 100 % of control

N#CC1=C(C#N)C(=O)C(Br)=C(Br)C1=O
inactive: dose: 12.5 mg/kg/injection, schedule: Q01DX005 (ip), vehicle: Klucel + Tween-80 108 % of control | dose: 25.0 mg/kg/injection, schedule: Q01DX005 (ip), vehicle: Klucel + Tween-80 106 % of control | dose: 50.0 mg/kg/injection, schedule: Q01DX005 (ip), vehicle: Klucel + Tween-80 108 % of control

CCOC(=O)/C=C1\NC(=O)N(CCCCCCN2C(=O)N/C(=C\C(=O)OCC)C2=O)C1=O
inactive: [8] 101 % of control | [9] 93 % of control | dose: 200.0 mg/kg/injection, schedule: Q01DX009 (ip), vehicle: saline with Tween-80 93 % of control

O=C(C[N+](=O)[O-])OCc1ccccc1
inactive: dose: 12.5 mg/kg/injection, schedule: Q01DX009 (ip), vehicle: other 101 % of control | dose: 25.0 mg/kg/injection, schedule: Q01DX009 (ip), vehicle: other 106 % of control | dose: 50.0 mg/kg/injection, schedule: Q01DX009 (ip), vehicle: other 113 % of control | dose: 100.0 mg/kg/injection, schedule: Q01DX009 (ip), vehicle: other 103 % of control

CC(=O)Nc1ccc(S(=O)(=O)Nc2cccc3[nH]c(=O)oc23)cc1
inactive: dose: 50.0 mg/kg/injection, schedule: Q04DX002 (ip), vehicle: Klucel (hydroxypropylcellulose) (HPC) 98 % of control | dose: 100.0 mg/kg/injection, schedule: Q04DX002 (ip), vehicle: Klucel (hydroxypropylcellulose) (HPC) 95 % of control | dose: 200.0 mg/kg/injection, schedule: Q04DX002 (ip), vehicle: Klucel (hydroxypropylcellulose) (HPC) 92 % of control

O=C(N/N=C/c1cc(Br)cc(Br)c1[O-])c1ccccc1.O=C(N/N=C/c1cc(Br)cc(Br)c1[O-])c1ccccc1.[Ni+2]
inactive: [15] 90 % of control | [16] 90 % of control | dose: 400.0 mg/kg/injection, schedule: Q01DX001 (ip), vehicle: saline with Tween-80 94 % of control
